Patent US9518974B2, “Sensor system for detecting organophosphorus residues by inducing coagulation of gold nanoparticles” (priority 2014, dated 2016)

Target: EGFP (Aequorea victoria, UniProt P42212, F64L/H231L/S65T)
Test: Influence of organophosphorus pesticide on activity (fluorescence) of EGFP
Settings: pesticide 10 ppb to 10 ppm, excitation 480 nm, emission 510 nm, control 10% methanol

Row | SMILES | intensity of fluorescence of EGFP
1 | CCOP(=O)(Sc1ccccc1)Sc1ccccc1 [edifenphos] | the same results
2 | CC(C)OP(=O)(OC(C)C)SCc1ccccc1 [iprobenfos] | the same results
